The text below walks through data of PubChem BioAssay AID1918933 (Molecular Pharmacology Branch, DTP, NCI, 2023).

Where “and” joins values, the source holds several entries; their conditions need not be identical. Identical values can stand only once.

The assay has as its system 186277-243-T-J2-PDC complex spheroid viability. Kind of assay: Anticancer human tumor 186277-243-T-J2-PDC patient-derived colon adenocarcinoma cell line growth inhibition. Particulars: for viability, T/C: stronger effect = lower value. The gist of the method:
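Complex spheroids of tumor cells with HUVEC and human MSCs, exposed to iadademstat combined with other agents. Each agent tested in half-log steps from near clinical Cmax (else 10 microM top), DMSO ≤0.25%.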

Where [1] appears, read: curve of first compound, second compound 0.1 µM.
Setting [2] is: curve of first compound, second compound 0.316 µM.
Where [3] appears, read: curve of first compound, second compound 1 µM.
Where [4] appears, read: curve of first compound, second compound 3.16 µM.
Setting [5] is: curve of first compound, second compound 10 µM.
Setting [6] is: second compound 0.1 µM, first compound 0.000316 µM.
The mark [7] stands for this setting: second compound 0.1 µM, first compound 0.001 µM.
Setting [8] is: second compound 0.1 µM, first compound 0.00316 µM.
The mark [9] stands for this setting: second compound 0.1 µM, first compound 0.01 µM.
The mark [10] stands for this setting: second compound 0.1 µM, first compound 0.0316 µM.
The mark [11] stands for this setting: second compound 0.1 µM, first compound 0.1 µM.
[12] abbreviates: second compound 0.316 µM, first compound 0.000316 µM.
The mark [13] stands for this setting: second compound 0.316 µM, first compound 0.001 µM.
Setting [14] is: second compound 0.316 µM, first compound 0.00316 µM.
Setting [15] is: second compound 0.316 µM, first compound 0.01 µM.
The mark [16] stands for this setting: second compound 0.316 µM, first compound 0.0316 µM.
Where [17] appears, read: second compound 0.316 µM, first compound 0.1 µM.
Where [18] appears, read: second compound 1 µM, first compound 0.000316 µM.
[19] abbreviates: second compound 1 µM, first compound 0.001 µM.
The mark [20] stands for this setting: second compound 1 µM, first compound 0.00316 µM.
Where [21] appears, read: second compound 1 µM, first compound 0.01 µM.
Where [22] appears, read: second compound 1 µM, first compound 0.0316 µM.
Where [23] appears, read: second compound 1 µM, first compound 0.1 µM.
Setting [24] is: second compound 3.16 µM, first compound 0.000316 µM.
The mark [25] stands for this setting: second compound 3.16 µM, first compound 0.001 µM.
[26] abbreviates: second compound 3.16 µM, first compound 0.00316 µM.
Where [27] appears, read: second compound 3.16 µM, first compound 0.01 µM.
Where [28] appears, read: second compound 3.16 µM, first compound 0.0316 µM.
Where [29] appears, read: second compound 3.16 µM, first compound 0.1 µM.
Setting [30] is: second compound 10 µM, first compound 0.000316 µM.
Where [31] appears, read: second compound 10 µM, first compound 0.001 µM.
Where [32] appears, read: second compound 10 µM, first compound 0.00316 µM.
Where [33] appears, read: second compound 10 µM, first compound 0.01 µM.
The mark [34] stands for this setting: second compound 10 µM, first compound 0.0316 µM.
The mark [35] stands for this setting: second compound 10 µM, first compound 0.1 µM.
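Also: 7 day exposure to compounds.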
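For viability, T/C in this document: 100% = DMSO vehicle control viability.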

Regarding `CC[C@@]1(O)C(=O)OCc2c1cc1n(c2=O)Cc2cc3c(CN(C)C)c(O)ccc3nc2-1` + NC1CC1c1ccc(-c2cccc(O)c2)cc1, the IC50 reads like this: under setting [1], 64.1 nM; under setting [2], 58.6 nM; under setting [3], 60.9 nM; under setting [4], 64.4 nM; under setting [5], 56.7 nM. The viability, T/C is 117% under setting [6]; 125% under setting [7]; 153% under setting [8]; 116% under setting [9]; 74.5% under setting [10]; 34.9% under setting [11]. For the same compound, the viability, T/C is, setting by setting: under setting [12], 101%; under setting [13], 96.5%; under setting [14], 139%; under setting [15], 118%; under setting [16], 71.7%; under setting [17], 31.2%. For the same compound, the viability, T/C runs as follows: under setting [18], 90.7%; under setting [19], 108%; under setting [20], 127%; under setting [21], 119%; under setting [22], 73.1%; under setting [23], 32.5%. The viability, T/C was 101% under setting [24]; 97.8% under setting [25]; 119% under setting [26]; 131% under setting [27]; 76.3% under setting [28]; 33.6% under setting [29]. For the same compound, the viability, T/C under setting [30] was 103%; the viability, T/C under setting [31] was 96.4%; the viability, T/C under setting [32] is 123%; the viability, T/C under setting [33] was 116%; the viability, T/C under setting [34] was 74%; the viability, T/C under setting [35] was 26.7%.
In the case of `Cn1ncnc1C1c2n[nH]c(=O)c3cc(F)cc(c23)NC1c1ccc(F)cc1` (stereo unspecified), the viability, T/C is 101% and 106% (compound 0.000316 µM); 98.5% and 98% (compound 0.001 µM); 97.8% and 95.2% (compound 0.00316 µM); 97.5% and 93.7% (compound 0.01 µM); 94.1% and 101% (compound 0.0316 µM); 97.3% and 108% (compound 0.1 µM). Besides, the 50% inhibitory concentration (IC50) (curve of compound) is more than 100 nM.
For `O=C(c1cc(Cc2n[nH]c(=O)c3ccccc23)ccc1F)N1CCN(C(=O)C2CC2)CC1` + NC1CCC(NC2CC2c2ccccc2)CC1, the half-inhibitory concentration (IC50) under setting [1] is more than 10000 nM; the IC50 under setting [2] is more than 10000 nM; the 50% inhibitory concentration (IC50) under setting [3] is more than 10000 nM; the IC50 under setting [4] is more than 10000 nM; the IC50 under setting [5] is more than 10000 nM. Also, the viability, T/C reads like this: under setting [10], 121%; under setting [11], 121%; (second compound 0.1 µM, first compound 0.316 µM) 117%; (second compound 0.1 µM, first compound 1 µM) 123%; (second compound 0.1 µM, first compound 3.16 µM) 121%; (second compound 0.1 µM, first compound 10 µM) 94%. For the same compound, the viability, T/C was 119% under setting [16]; 114% under setting [17]; 117% (second compound 0.316 µM, first compound 0.316 µM); 113% (second compound 0.316 µM, first compound 1 µM); 127% (second compound 0.316 µM, first compound 3.16 µM); 84.1% (second compound 0.316 µM, first compound 10 µM). For the same compound, the viability, T/C under setting [22] is 111%; the viability, T/C under setting [23] is 112%; the viability, T/C (second compound 1 µM, first compound 0.316 µM) was 122%; the viability, T/C (second compound 1 µM, first compound 1 µM) is 123%; the viability, T/C (second compound 1 µM, first compound 3.16 µM) was 121%; the viability, T/C (second compound 1 µM, first compound 10 µM) was 79.1%. The viability, T/C runs as follows: under setting [28], 120%; under setting [29], 120%; (second compound 3.16 µM, first compound 0.316 µM) 119%; (second compound 3.16 µM, first compound 1 µM) 132%; (second compound 3.16 µM, first compound 3.16 µM) 124%; (second compound 3.16 µM, first compound 10 µM) 80.5%. The viability, T/C under setting [34] was 111%; the viability, T/C under setting [35] is 109%; the viability, T/C (second compound 10 µM, first compound 0.316 µM) was 114%; the viability, T/C (second compound 10 µM, first compound 1 µM) is 134%; the viability, T/C (second compound 10 µM, first compound 3.16 µM) is 109%; the viability, T/C (second compound 10 µM, first compound 10 µM) is 69.9%.
As for `CC(C)CC(NC(=O)C(Cc1ccccc1)NC(=O)c1cnccn1)B(O)O` (stereo unspecified) + NC1CC1c1ccc(-c2cccc(O)c2)cc1, the IC50 under setting [1] was 0.601 nM; the concentration for half-maximal inhibition (IC50) under setting [2] turned out to be 0.547 nM; the IC50 under setting [3] was 0.548 nM; the IC50 under setting [4] came to 0.57 nM; the IC50 under setting [5] turned out to be 0.557 nM. Moreover, the viability, T/C is 108% under setting [6]; 3.98% under setting [7]; 0.06% under setting [8]; 0.02% under setting [9]; 0.02% under setting [10]; 0.12% under setting [11]. Moreover, the viability, T/C under setting [12] was 94.1%; the viability, T/C under setting [13] is 1.53%; the viability, T/C under setting [14] is 0.04%; the viability, T/C under setting [15] is 0.01%; the viability, T/C under setting [16] was 0.37%; the viability, T/C under setting [17] is 0.1%. Moreover, the viability, T/C under setting [18] was 94.3%; the viability, T/C under setting [19] is 1.48%; the viability, T/C under setting [20] was 0.05%; the viability, T/C under setting [21] is 0.02%; the viability, T/C under setting [22] was 0.07%; the viability, T/C under setting [23] is 0.1%. For the same compound, the viability, T/C is 101% under setting [24]; 1.66% under setting [25]; 0.06% under setting [26]; 0.02% under setting [27]; 0.64% under setting [28]; 0.74% under setting [29]. Besides, the viability, T/C is, setting by setting: under setting [30], 97.9%; under setting [31], 0.65%; under setting [32], 0.13%; under setting [33], 0.2%; under setting [34], 0.13%; under setting [35], 0.89%.
In the case of `Nc1ccn(C2OC(CO)C(O)C2(F)F)c(=O)n1` (stereo unspecified), the viability, T/C runs as follows: (compound 0.000949 µM) 17.2% and 101%; (compound 0.003 µM) 16.7% and 32.3%; (compound 0.00949 µM) 16.5% and 13%; (compound 0.03 µM) 16.5% and 11.9%; (compound 0.0949 µM) 17.1% and 12.7%; (compound 0.3 µM) 14.7% and 14%. Moreover, the IC50 (curve of compound) was < 0.949 nM and 2.23 nM.
On to `CCc1c2c(nc3ccc(O)cc13)-c1cc3c(c(=O)n1C2)COC(=O)[C@]3(O)CC`, for which the viability, T/C (compound 0.000949 µM) was 48.5% and 39.8%; the viability, T/C (compound 0.003 µM) is 35.5% and 27%; the viability, T/C (compound 0.00949 µM) was 31.5% and 23.3%; the viability, T/C (compound 0.03 µM) is 22% and 4.12%; the viability, T/C (compound 0.0949 µM) is 2.19% and 0.43%; the viability, T/C (compound 0.3 µM) was 0.75% and 0.28%. Besides, the IC50 (curve of compound) was less than 0.949 nM.

As usually defined, the IC50 is the concentration that inhibits the measured activity by half. What is called viability, T/C is the result in the treated group divided by that in the control group, in per cent.
